The text below walks through data of paper PMC9037180, “Ligand-based design and synthesis of N'-Benzylidene-3,4-dimethoxybenzohydrazide derivatives as potential antimicrobial agents; evaluation by in vitro, in vivo, and in silico approaches with SAR studies” (Journal of Enzyme Inhibition and Medicinal Chemistry, 2022).

The structures appear in SMILES notation. Values after ≈ are worked out from the molar mass of the structure shown. Read-outs that look alike come from different tables or passages of the source.

As a reminder, the MIC is the smallest concentration in the dilution series that meets the test's criterion for growth inhibition. Usually MBC stands for the lowest tested concentration that kills the bacteria rather than only halting them. Low values mean more potent killing, high ones less potent killing. One may read the IC50 as the point on the concentration scale where inhibition reaches its midpoint.

Data set [1] has as its system P. aeruginosa ATCC10145. Kind of data set: Minimal inhibitory concentration (MIC), broth dilution. As to conditions: Pseudomonas aeruginosa, ATCC10145. In general terms: Dilution methods test growth across graded concentrations, often in twofold steps.
The subject of data set [2] is Aciento sensitive. Description: Minimal bactericidal concentration (MBC). Conditions: Acinetobacter baumannii. In kind it is cell-based, A. baumanii. The protocol:
(§1) After determining the MIC for the target compounds, the minimal bactericidal concentration (MBC) for each compound that is required to kill each one of the above-mentioned microorganisms was assessed.

Data set [3] relates to E. faecalis ATCC 29212. Kind of data set: Minimal inhibitory concentration (MIC), broth dilution. Conditions: Enterococcus faecalis, ATCC29212.
The test system of data set [4] is Acientobacter sensitive. Described as above. Conditions: Acinetobacter baumannii.
Data set [5] concerns E. faecalis, Acientobacter, P. auriginosa, S. aureus, S. typhi, E. coli, C. albicans. Description: Average MIC over the nine tested microbial species (SAR). Conditions: for antimicrobial activity (SAR grading): based on MIC average values; for MIC: read-out: Average MIC. It counts as cell-based. An excerpt: Herein, we aimed to study the structure-antimicrobial activity relationship of the newly synthesised N'-benzylidene-3,4-dimethoxybenzohydrazide derivatives based on MIC average values[51]^,[52] as represented in the supplementary data (Table SI1). Thereby, the changes in their antimicrobial potential and spectrum upon structural modifications could be unveiled, thus offering clues for structural changes that are capable of increasing the antimicrobial potential.

In data set [6] the test system is S. aureus ATCC 6538. Description: Minimal inhibitory concentration (MIC), broth dilution. As to conditions: Staphylococcus aureus, ATCC6538.
The subject of data set [7] is C. albicans MTCC183. The description is as above. In kind it is cell-based. Conditions: Candida albicans, MTCC183. An excerpt:
In vitro evaluation for antifungal activities regarding target compounds (4a–j) as well as reference drug, was done against C. albicans MTCC183 through the zone inhibition technique using well diffusion agar assay in addition to MIC.

Data set [8] deals with Aciento MDR. The data set is described as above. As to conditions: Acinetobacter baumannii.
For data set [9], the system named is E. coli. Description: Minimal bactericidal concentration (MBC). In kind it is cell-based. As to conditions: Escherichia coli. The protocol: as §1
The subject of data set [10] is A. baumanii ATCC 19606. Kind of data set: Minimal inhibitory concentration (MIC), broth dilution. As to conditions: Acinetobacter baumannii, ATCC19606.
Data set [11] deals with E. coli ATCC 25922. The data set is described as above. Conditions: Escherichia coli, ATCC25922.
Data set [12] relates to S. typhi clinical isolate. The description is as above. In kind it is cell-based. As to conditions: Salmonella enterica, TYPHI.
A short description of data set [13]: Cytotoxicity on cells using MTT assay. As to conditions: African green monkey, Vero cells (normal mammalian cell line). It counts as cell-based. The protocol:
The newly synthesised compounds were looked deeply into their efficacy using in silico, in vitro, and in vivo approaches. On the other hand, the cytotoxicity assay was performed for the tested compounds using a normal mammalian Vero cell line by the MTT assay[31]^,[32].
Moreover, the cytotoxicity values of the target compounds were determined to calculate their corresponding IC50 values through the MTT assay. The IC50 value indicates the compound’s concentration that is required to inhibit 50% of the target cells.
The MTT (3–(4,5-dimethylthiazol-2-yl)-2,5-diphenyltetrazolium bromide) tetrazolium reduction assay protocol was applied to determine the cytotoxicity of the target compounds (4a–j) on cells.

Data set [14] deals with S. typhi. Description: Minimal bactericidal concentration (MBC). It counts as cell-based. Conditions: Salmonella enterica.
The subject of data set [15] is E. faecalis. Kind of data set: Minimal bactericidal concentration (MBC). In kind it is cell-based. As to conditions: Enterococcus faecalis. The protocol:
as §1

In data set [16] the test system is A. baumanii. Kind of data set: Minimal bactericidal concentration (MBC). In kind it is cell-based. As to conditions: Acinetobacter baumannii. The protocol:
as §1

The subject of data set [17] is P. Auriginosa. Description: Minimal bactericidal concentration (MBC). Conditions: Pseudomonas aeruginosa. In kind it is cell-based, P. aeruginosa. The protocol:
as §1

For `COc1ccc(C(=O)NN=Cc2cc(Br)cc(Br)c2O)cc1OC` [Compound 4e, N'-(3,5-dibromo-2-hydroxybenzylidene)-3,4-dimethoxybenzohydrazide], the MIC in data set [1] is 68.7 µM (≈ 31.4 µg/mL); in data set [3], 137 µM (≈ 62.8 µg/mL); in data set [4] it was 17.1 µM (≈ 7.85 µg/mL); in data set [5] it was 72.4 µM (≈ 33.2 µg/mL); in data set [6], 34.2 µM (≈ 15.7 µg/mL); in data set [7] (C. albicans (CA), read-out: MIC) it was 137 µM (≈ 62.8 µg/mL). The MIC in data set [8] came to 137 µM (≈ 62.8 µg/mL); in data set [10], 34.2 µM (≈ 15.7 µg/mL); in data set [11], 17.1 µM (≈ 7.85 µg/mL); in data set [12] it was 68.7 µM (≈ 31.4 µg/mL). In addition, the MBC in [2] and in data set [9] was 68.7 µM (≈ 31.4 µg/mL) in each case. Besides, in data set [5], the “antimicrobial activity (SAR grading)” value was “moderate antimicrobial activity”.

`COc1ccc(C(=O)NN=Cc2cc(Cl)cc(Cl)c2O)cc1OC` [Compound 4f, N'-(3,5-dichloro-2-hydroxybenzylidene)-3,4-dimethoxybenzohydrazide]: the MIC in data set [1] amounted to 85 µM (≈ 31.4 µg/mL); in [3], 42.4 µM (≈ 15.7 µg/mL); in data set [4], 21.2 µM (≈ 7.83 µg/mL); in data set [5], 73.2 µM (≈ 27 µg/mL); in data set [6], 170 µM (≈ 62.7 µg/mL); in [7], 85 µM (≈ 31.4 µg/mL). Besides, the MIC in [8] was 85 µM (≈ 31.4 µg/mL); in data set [10] it was 42.4 µM (≈ 15.7 µg/mL); in data set [11], 42.4 µM (≈ 15.7 µg/mL); in [12], 85 µM (≈ 31.4 µg/mL). Besides, the MBC in data set [2] stood at 85 µM (≈ 31.4 µg/mL). In addition, the “antimicrobial activity (SAR grading)” value in data set [5] is reported as “moderate antimicrobial activity”. Further, the IC50 in data set [13] is 2.16 mM.

Regarding `COc1ccc(C(=O)NN=Cc2cc(C(C)(C)C)cc(C(C)(C)C)c2O)cc1OC` [Compound 4g, N'-(3,5-di-tert-butyl-2-hydroxybenzylidene)-3,4-dimethoxybenzohydrazide], the MIC is 75.9 µM (≈ 31.3 µg/mL) in [1]; 18.9 µM (≈ 7.82 µg/mL) in data set [3]; 37.8 µM (≈ 15.6 µg/mL) in data set [4]; 73.7 µM (≈ 30.4 µg/mL) in data set [5]; 152 µM (≈ 62.5 µg/mL) in data set [6]; 37.8 µM (≈ 15.6 µg/mL) in data set [7]. For the same compound, the MIC was 152 µM (≈ 62.5 µg/mL) in data set [8], 75.9 µM (≈ 31.3 µg/mL) in data set [10], 75.9 µM (≈ 31.3 µg/mL) in data set [11] and 37.8 µM (≈ 15.6 µg/mL) in data set [12]. For the same compound, the MBC in [2], in [14] and in data set [15] was 75.9 µM (≈ 31.3 µg/mL) throughout. In addition, the “antimicrobial activity (SAR grading)” value in [5] is recorded as “moderate antimicrobial activity”.

For the compound `CCCCCCCCCCCCOc1ccc(C=NNC(=O)c2ccc(OC)c(OC)c2)cc1` [Compound 4j, N'-(4-(dodecyloxy)benzylidene)-3,4-dimethoxybenzohydrazide], the minimum inhibitory concentration (MIC) in data set [1] was 33.3 µM (≈ 15.6 µg/mL); in data set [3] it was 16.7 µM (≈ 7.82 µg/mL); in [4], 33.3 µM (≈ 15.6 µg/mL); in data set [5] it was 74.2 µM (≈ 34.7 µg/mL); in data set [6], 66.8 µM (≈ 31.3 µg/mL); in [7] it was 267 µM (≈ 125 µg/mL). In addition, the MIC in [8] is 134 µM (≈ 62.6 µg/mL); in data set [10], 16.7 µM (≈ 7.82 µg/mL); in data set [11], 66.8 µM (≈ 31.3 µg/mL); in data set [12] it was 33.3 µM (≈ 15.6 µg/mL). The MBC in data set [2] stood at 66.8 µM (≈ 31.3 µg/mL); in data set [14] it was 66.8 µM (≈ 31.3 µg/mL); in data set [16], 66.8 µM (≈ 31.3 µg/mL); in data set [15], 33.3 µM (≈ 15.6 µg/mL). In addition, the “antimicrobial activity (SAR grading)” value in data set [5] is “moderate antimicrobial activity”.

As to `CO/N=C(\C(=O)N[C@@H]1C(=O)N2C(C(=O)O)=C(CSc3nc(=O)c(=O)[nH]n3C)CS[C@H]12)c1csc(N)n1` [ceftriaxone, reference compound], the MBC in [2] amounted to 113 µM (≈ 62.5 µg/mL); in data set [14], 225 µM (≈ 125 µg/mL); in [17], 225 µM (≈ 125 µg/mL); in data set [16], 113 µM (≈ 62.5 µg/mL); in data set [9], 113 µM (≈ 62.5 µg/mL). The MIC in data set [4] is 14.1 µM (≈ 7.81 µg/mL); in data set [6] it was 3.52 µM (≈ 1.95 µg/mL); in data set [12] it was 14.1 µM (≈ 7.81 µg/mL).
